Test results published in article PMC3006138, “Fexinidazole – A New Oral Nitroimidazole Drug Candidate Entering Clinical Development for the Treatment of Sleeping Sickness” (PLoS Neglected Tropical Diseases, 2010).
“Also recorded” adds a separate entry of the source. Read-outs that look alike come from different tables or passages of the source.

What was measured:
[1] = Hepatocyte intrinsic clearance and metabolite profile; assay type: in vitro ADME, mouse; settings: male, CD-1, mouse, cryopreserved hepatocytes, 1 µM
Protocol: (§1) Fexinidazole was incubated with cryopreserved hepatocytes from male CD-1 mice, male Sprague Dawley rats, male beagle dogs, male cynomolgus monkeys, and from pooled white or African-American human donor samples (purchased commercially), at concentrations of 1 µM and 10 µM. […] The incubated samples were analyzed by LC-MS after extraction into acetonitrile.
(§2) A quality control analysis of fexinidazole was performed via 1H-NMR in DMSO and LC- […]
(§3) provided by the Swiss Tropical Institute (Basel, Switzerland).
(§4) Reagents and solvents were of analytical grade and obtained from Sigma-Aldrich (St. Louis, […]
(§5) Cryopreserved hepatocytes from the male CD1 mouse, lot CSI; male Sprague Dawley rat, lot LPL; male beagle dog, lot BWX; male cynomolgus monkey, lot EHH; and pooled human samples, lot MJI, were purchased from In Vitro Technologies Inc (Baltimore, Maryland, […]
(§6) 5.4. In vitro Incubations
(§7) On the day of the experiment a 10 mM stock solution of fexinidazole in DMSO was prepared and, within 3 hours, aliquots of this freshly prepared solution, after suitable dilution, were added to the incubation matrix, to reach fexinidazole final concentrations of 1 and 10 µM. The final percentage of DMSO was 0.01% in the incubation samples for the […]
(§8) On the day of experiment, the cryopreserved hepatocytes were thawed following the detailed instructions provided by the supplier.
(§9) The number of viable cells was determined using a Trypan Blue exclusion method.
(§10) 5.4.1. Intrinsic Clearance Study […]
(§11) µM with mouse, rat, dog, monkey and human hepatocytes (300000 cells/mL for the mouse and 1 million cells/mL for the other species) in a final incubation volume of 0.75 mL […]
(§12) Incubations were performed in duplicate in a 48-well plate under shaking. Sampling was performed using an automatic liquid handling system (Multiprobe II EX, Packard). At 0, 1, 5, 10, 15, 20, 30, 60 and 120 minutes, 50 µL aliquots of the incubates were taken, then 80 µL of ice-cold acetonitrile and 20 µL of 1 µM warfarin in acetonitrile (internal standard) were added, and samples centrifuged at 2000 rpm for 20 min. The supernatant was analyzed by LC-MS/MS. […]
(§13) the medium alone at t = 0 and 120 minutes.
(§14) For the determination of phase I and phase II activity of hepatocytes, 7-ethoxycoumarin (7-EC) 1 µM, and 7-hydroxycoumarin (7-HC) 30 µM were used as positive controls and incubated under the same conditions as fexinidazole. Aliquots of incubates were taken at 0, 10, 20, 30, 60 and 120 minutes and processed as fexinidazole samples.
(§15) 5.4.2. Metabolite Profile Study
(§16) For metabolite profiling, fexinidazole was incubated at a concentration of 10 µM with mouse, rat, dog, monkey and human hepatocytes (300000 cells/mL for the mouse and 1 million cells/mL for the other species) in a final incubation volume of 2 mL Leibovitz L-15 […]
(§17) Aliquots of the incubation samples were taken at t = 0, 30 and 120 minutes; the metabolism was stopped by the addition of an equal volume of cold acetonitrile and the samples centrifuged at 1500 rpm for 20 min. The supernatant was stored at -20°C until analysis. Control incubations were performed with the compound in the medium alone […]
(§18) 5.5. Analysis of Samples for Intrinsic Clearance Determination
(§19) The analysis of the samples for intrinsic clearance determination was performed by an LC-MS/MS method, using the following conditions:
(§20) HPLC Equipment and Conditions
(§21) HPLC system Agilent 1100 binary pump (Agilent, Palo Alto, USA)
(§22) Autosampler CTC Pal (Alfatech, San Jose, USA)
(§23) Analytical column Guard Column SB-C8 4.6 x 12.5 mm, 5 µm (Zorbax)
(§24) Column temperature ambient
(§25) Mobile phase A 10 mM ammonium formate pH 4.0: acetonitrile (95:5, v:v)
(§26) Mobile phase B 10 mM ammonium formate pH 4.0: acetonitrile (5:95, v:v) […]
(§27) Gradient conditions Step Total time (min) flow (µL/min) %A % B […]
(§28) MS Equipment and Conditions
(§29) Mass spectrometer API 4000 Triple Quadrupole (MDS-Sciex, Toronto, […]
(§30) Source Turbo Ion Spray (TIS)
(§31) Ion mode Positive for fexinidazole and 7-EC.
(§32) Negative for 7-HC, 7-HC sulphate and 7-HC glucuronide.

[2] = as above; assay type: in vitro ADME, cynomolgus monkey; settings: male, cynomolgus monkey, cryopreserved hepatocytes, 1 µM
Protocol: as §1, §2, §3, §4, §5, §6, §7, §8, §9, §10, §11, §12, §13, §14, §15, §16, §17, §18, §19, §20, §21, §22, §23, §24, §25, §26, §27, §28, §29, §30, §31, §32

[3] = Irwin's test of general behaviour and body temperature; assay type: in vivo, rat
Protocol: Neurobehavioural safety was carried out using the Irwin's test of general behaviour and body temperature in male rats, [41]. […] General behaviour was assessed before treatment and 2 h and 24 h after vehicle or drug administration. A defined set of behavioural observations using an arbitrary intensity scale of 0 (no behavioural change) to 8 was made before treatment and 2 h and 24 h after treatment. Factors present in normal animals (e.g. alertness, mobility) were scored as 4; potentiation or depression of these factors was indicated as higher or lower integers, respectively. Factors absent in normal animals were scored from 0 (normal) to 8.
Exp. Treatment(a) Dose Number of Session (mg/kg) Animals/Group
(a) Three animals/group were dosed each day of study.
6.3.2. Allocation/Randomization
The animals were selected and distributed into experimental groups using random number tables (Fisher and Yates).
6.3.3. Dose Administration
Route and Method Oral, gastric gavage
Dosage volumes were adjusted to the individual animal body weights recorded on the day of […]
6.3.4. Dose Justification
In this study, the top dose of […]
dose went from 500 to 1000 mg/kg/day.
6.4. Experimental procedure
6.4.1. Behavioral observations
Behavior of the animals was assessed before treatment, 2 hours and 24 hours after treatment.
After treatment, animals were put in their home cages. Observation was performed in 5 steps:
• Home cage observations: piloerection, bizarre behavior, exophthalmus, respiration, tremors, twitches, convulsions
Nerviano Medical Sciences

CSc1ccc(OCc2ncc([N+](=O)[O-])n2C)cc1 [Fexinidazole, 1-methyl-2-((p-(methylthio)phenoxy)methyl)-5-nitroimidazole]
half-life at 1 µM [1]: 1.4 min | CLint scaled at 1 µM ([1]; read-out: CLint in vitro): > 180 L/h/kg | hepatocyte CLint at 1 µM ([1]; read-out: CLint in vitro): 1630 µL/min/1e6 cells | CLint scaled at 1 µM ([2]; read-out: CLint in vitro): 390 L/h/kg | half-life at 1 µM ([2]; cynomolgus): 0.6 min | hepatocyte CLint at 1 µM ([2]; cynomolgus, read-out: CLint in vitro): 1190 µL/min/1e6 cells | Body temperature ([3]; 100 mg/kg, 2 hours): 38.3 ± 0.3 °C | Body temperature ([3]; 100 mg/kg, 24 hours): 38.2 ± 0.3 °C | Body temperature ([3]; 300 mg/kg, 2 hours): 38.1 ± 0.5 °C | Body temperature ([3]; 300 mg/kg, 24 hours): 37.9 ± 0.6 °C | Body temperature ([3]; 1000 mg/kg, 2 hours): 38.3 ± 0.3 °C | Body temperature ([3]; 1000 mg/kg, 24 hours): 38.1 ± 0.3 °C | effects on general behaviour and body temperature ([3]; 100, 300 or 1000 mg/kg po): no meaningful effects; also recorded: no effects were observed | No-Observed-Effect-Level on general behavior and body temperature ([3]; single oral dose): ≥ 1000 mg/kg
